Assay [1] has as its system human lung carcinoma with a k-ras mutation. The settings on record: nude mice; cited from earlier work.
Assay [2] has as its system Ras farnesylation in H-ras-NIH3T3 cells. Kind of assay: Gel shift assay: inhibition of Ras farnesylation in H-ras-NIH3T3 cells. It counts as cell-based. The settings on record: 18-hour incubation, read-out: Inhibition of Ras Farnesylation (Minimum Effective Dose). As for the experimental part: (§1) Twenty-four hours after planting 2×10^6 ras-transformed cells per treatment condition, the farnesylation inhibitor is added at varying concentrations. Following an 18-hour incubation period, cells are lysed in phosphate-buffered saline containing 1% Triton X-100, 0.5% sodium deoxycholate, and 0.1% SDS, pH 7.4 in the presence of several protease inhibitors (PMSF, antipain, leupeptin, pepstatin A, and aprotinin all at 1 μg/mL). Ras protein is immunoprecipitated from the supernatants by the addition of 3 μg v-H-ras Ab-2 (Y13-259 antibody from Oncogene Science). After overnight immunoprecipitation, 30 μL of a 50% protein G-Sepharose slurry (Pharmacia) is added followed by 45-minute incubation. Pellets are resuspended in 2× tris-glycine loading buffer (Novex) containing 5% B-mercaptoethanol and then denatured by 5 minutes boiling prior to electrophoresis on 14% Tris-glycine SDS gels. Using Western transfer techniques, proteins are transferred to nitrocellulose membranes followed by blocking in blocking buffer. Upon overnight incubation with primary antibody (pan-ras Ab-2 from Oncogene Science), an antimouse HRP conjugate secondary antibody (Amersham) is employed for detection of the ras protein. Blots are developed using ECL techniques (Amersham).
(§2) The data in Table 1 show farnesyl protein transferase inhibitory activity, and activity in the gel shift assay against ras protein of selected compounds of Formula I.

Assay [3] has as its system Ras farnesylation in H-ras Me 12/+ cells. Description: Gel shift assay: inhibition of Ras farnesylation in H-ras Me 12/+ cells. In kind it is cell-based. The settings on record: 18-hour incubation, read-out: Inhibition of Ras Farnesylation (Minimum Effective Dose). How it is done:
as §1, §2

In assay [4] the target is T1, rat brain farnesyl protein transferase (Rattus norvegicus, UniProt Q02293+Q04631).
T1 construct: 40-fold purified rat brain farnesyl protein transferase; from tissue; host or cells: rat brain
Kind of assay: Protein:farnesyltransferase (PFT/FPT) inhibitory activity assay. It counts as biochemical.

[5] abbreviates: Hepes (without 5 mM phosphate), read-out: Farnesyl Protein Transferase Inhibition, Hepes, IC50.
The mark [6] stands for this setting: Hepes/5 mM PO4^-3, pH 7.4, read-out: Farnesyl Protein Transferase Inhibition, Hepes/5 mM PO4^-3, IC50.

Consider 6 molecules from US6008372A, “Substituted dinaphthylmethyl and diheteroarylmethylacetyl histidine inhibitors of protein farnesyltransferase” (Warner-Lambert Company, priority 1998, dated 1999).

Like-named read-outs stand apart in the source and are kept apart here.

As to `CSCC[C@H](NC(=O)c1ccc(NC[C@@H](N)CS)cc1-c1ccccc1)C(=O)O` [FTI-276], the “blocks the growth of a human lung carcinoma with a k-ras mutation” value in assay [1] is “blocks the growth in nude mice of a human lung carcinoma with a k-ras mutation”.
For the molecule `COC(=O)[C@H](Cc1cncn1C)NC(=O)C(Cc1cccc2ccccc12)Cc1cccc2ccccc12` [Example 6, (S)-3-(3-Methyl-3H-imidazol-4-yl)-2-(3-naphthalen-1-yl-2-naphthalen-1-ylmethyl-propionylamino)-propionic acid, methyl ester], the minimal effective concentration in assay [2] was found to be 2.5 µM; in assay [3], 1 µM. For the same molecule, the IC50 came out at 0.42 µM in assay [4] (setting [5]) and 0.22 µM in assay [4] (setting [6]).
Turning to `CNC(=O)[C@H](Cc1c[nH]cn1)NC(=O)C(Cc1cccc2ccccc12)Cc1cccc2ccccc12` [Example 33, (S)-N-[2-(1H-Imidazol-4-yl)-1-methylcarbamoyl-ethyl]-3-naphthalen-1-yl-2-naphthalen-1-ylmethyl-propionamide], the minimal effective concentration in assay [2] and in assay [3] was 1 µM in each case. The IC50 in assay [4] (setting [5]) amounted to 0.61 µM; in assay [4] (setting [6]) it was 0.44 µM.
As to `COC(=O)[C@H](Cc1c[nH]cn1)NC(=O)C(Cc1cccc2ccccc12)Cc1cccc2ccccc12` [Example 1, (S)-3-(1H-Imidazol-4-yl)-2-(3-naphthalen-1-yl-2-naphthalen-1-ylmethyl-propionylamino)-propionic acid, methyl ester], the minimal effective concentration in assay [2] was 5 µM; in assay [3], 2.5 µM. Further, the IC50 in assay [4] (setting [5]) came out at 0.26 µM; in assay [4] (setting [6]) it was 0.3 µM.
With `CC(C)OC(=O)[C@H](Cc1c[nH]cn1)NC(=O)C(Cc1cccc2ccccc12)Cc1cccc2ccccc12` [Example 8, (S)-3-(1H-Imidazol-4-yl)-2-(3-naphthalen-1-yl-2-naphthalen-1-ylmethyl-propionylamino)-propionic acid, isopropyl ester], the minimal effective concentration in assay [2] and in assay [3] was 5 µM in each case. The IC50 in assay [4] (setting [5]) came out at 0.18 µM; in assay [4] (setting [6]), 0.16 µM.
`COC(=O)[C@H](Cc1c[nH]cn1)NC(=O)C(Cc1cccc2c1CCCC2)Cc1cccc2c1CCCC2` [Example 37, (S)-3-(1H-Imidazol-4-yl)-2-[3-(5,6,7,8-tetrahydro-naphthalen-1-yl)-2-(5,6,7,8-tetrahydro-naphthalen-1-ylmethyl)-propionylamino]-propionic acid, methyl ester]: the minimal effective concentration in assay [3] turned out to be 10 µM. The IC50 turned out to be 0.42 µM in assay [4] (setting [5]) and 0.18 µM in assay [4] (setting [6]).
